# Reference: US20240166617A1, “PHOSPHOINOSITIDE 3 KINASE BETA INHIBITORS AND COMPOSITIONS AND METHODS THEREOF” (Geode Therapeutics Inc., priority 2021, published 2024)
# Read-outs that look alike come from different tables or passages of the source.
# Tests used:
# [1] = test system: phosphorylation of AKT in HCC70 cells; test: Cellular assay: phosphorylation of AKT in HCC70 cells (western blotting); type: cell-based; conditions: Homo sapiens, HCC70, 1 h
# Description: Cellular activity of PI3Kβ inhibitors was determined by quantifying the phosphorylation of AKT in HCC70 cells. AKT phosphorylated at Ser473 and Thr308 were measured using western blotting and specific primary antibodies from Cell Signaling (CST), Danvers, MA. On day 1, HCC70 cells (ATCC #CRL-2315) were seeded into Falcon 12-well cell Culture Plate (Corning #353043) at 100,000 cells per well, in 1 ml complete culture medium (RPMI-1640, GIBCO #11875093) containing 10% heat inactivated FBS (GIBCO #10438026), 1% Pen-Strep (GIBCO #15140122) and incubated at 37° AC, 5% CO2 overnight. On day 2, compound (500 nM) or DMSO (0.1%, Sigma Aldrich #8418) was added and cells were further incubated for 60 min at 37° AC, 5% CO2 in a total volume of 1 ml fresh medium.
# At the end of the cell treatment period, media were removed by aspiration and adherent cells were lysed in 100 uL RIPA buffer (Sigma Aldrich #R0278). Equal volume (15 uL) of proteins was resolved by SDS-PAGE and transferred to PVDF (Millipore #IPFL00010) membrane for immunoblot analysis. Primary antibodies to the following proteins were used for immunoblotting: phosphor-AKT (Ser473) (CST #4060), phosphor-AKT (Thr308) (CST #2965), total AKT (CST #9272). Secondary goat anti-rabbit IgG fluorophore conjugated antibody (Invitrogen #A21109) was used to visualize the indicated proteins on an Odyssey CLx imaging system (Li-Cor). Quantification of band intensities was performed using Odyssey 3.0 software. Inhibition of Akt activity was calculated by band intensities using the formula: […]
# Index was evaluated by % of AI. Data represent Index+(20˜60%), ++(60%˜80%), +++(80%˜90%), and ++++>90%.
# [2] = molecular target: T1, PIK3Cb_h (Homo sapiens, UniProt P42338); test: Enzyme binding assay (KINOMEscan); conditions: Eurofins DiscoveRx
# T1 construct: purchased Eurofins DiscoveRx Corporation
# Description: Kinase enzyme binding affinities of compounds disclosed herein were determined using the KINOMEscan technology performed by Eurofins DiscoveRx Corporation, San Diego, California, USA (www.eurofinsdiscoveryservices.com). Table 2 reports the obtained PIK3β Kd values (nM) of, with the PIK3β Kd being the inhibitor binding constant. Table 3 reports the obtained Kd values (nM), with the Kd being the inhibitor binding constant: […]
# [3] = HCC70 cells, compound 500 nM, 60 min, inhibition of Akt activity from band intensities, read-out: Index of AI (HCC70) p-AKT Thr 308
# [4] = HCC70 cells, compound 500 nM, 60 min, inhibition of Akt activity from band intensities, read-out: Index of AI (HCC70) p-AKT ser 473
# [5] = read-out: Index of AI (HCC70) p-AKT Thr 308
# [6] = read-out: Index of AI (HCC70) p-AKT ser 473
# T1 sequence (P42338 whole entry): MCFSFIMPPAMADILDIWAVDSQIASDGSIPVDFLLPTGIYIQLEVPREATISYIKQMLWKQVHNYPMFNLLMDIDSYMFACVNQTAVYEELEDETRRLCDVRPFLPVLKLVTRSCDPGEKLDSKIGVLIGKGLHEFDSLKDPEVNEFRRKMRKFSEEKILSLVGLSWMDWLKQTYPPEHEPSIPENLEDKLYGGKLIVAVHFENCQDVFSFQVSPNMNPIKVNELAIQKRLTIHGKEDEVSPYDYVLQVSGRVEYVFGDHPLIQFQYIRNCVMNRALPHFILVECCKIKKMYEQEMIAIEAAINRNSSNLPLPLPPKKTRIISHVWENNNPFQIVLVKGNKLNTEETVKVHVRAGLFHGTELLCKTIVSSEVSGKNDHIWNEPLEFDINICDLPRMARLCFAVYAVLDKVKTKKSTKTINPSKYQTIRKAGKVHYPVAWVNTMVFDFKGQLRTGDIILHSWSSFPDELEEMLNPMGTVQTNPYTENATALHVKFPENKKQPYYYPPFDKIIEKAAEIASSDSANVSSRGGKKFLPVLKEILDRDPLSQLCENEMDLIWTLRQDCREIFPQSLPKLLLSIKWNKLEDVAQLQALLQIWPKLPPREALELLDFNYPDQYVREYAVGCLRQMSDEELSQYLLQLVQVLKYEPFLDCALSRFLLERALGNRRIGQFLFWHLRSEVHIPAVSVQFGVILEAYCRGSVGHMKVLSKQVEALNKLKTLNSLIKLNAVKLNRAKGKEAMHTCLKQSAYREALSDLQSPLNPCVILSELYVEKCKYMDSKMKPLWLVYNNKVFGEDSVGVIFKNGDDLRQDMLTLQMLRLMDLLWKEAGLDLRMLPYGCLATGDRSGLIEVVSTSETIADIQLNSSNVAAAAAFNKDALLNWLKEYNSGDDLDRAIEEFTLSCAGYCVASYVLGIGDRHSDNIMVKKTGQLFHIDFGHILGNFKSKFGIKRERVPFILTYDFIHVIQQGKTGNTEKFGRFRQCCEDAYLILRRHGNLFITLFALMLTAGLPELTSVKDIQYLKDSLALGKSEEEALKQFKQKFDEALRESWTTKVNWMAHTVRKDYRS
SMILES,"inhibition at 0.5 µM [1, 3] [%]","inhibition at 0.5 µM [1, 4] [%]",Kd [2] [nM],"inhibition at 0.5 µM [1, 5] [%]","inhibition at 0.5 µM [1, 6] [%]"
"CC(Nc1cc(F)cc(F)c1)c1cc(NC(=O)C2CCCC2)cc2c(=O)cc(N3CCOCC3)oc12 (stereo not shown) [Compound 12, N-(8-(1-((3,5-difluorophenyl)amino)ethyl)-2-morpholino-4-oxo-4H-chromen-6-yl)cyclopentanecarboxamide]",> 90,> 90,0.55,–,–
"CC(Nc1cc(F)cc(F)c1)c1cc(NS(C)(=O)=O)cc2c(=O)cc(N3CCOCC3)oc12 (stereo not shown) [Compound 13, N-(8-(1-((3,5-difluorophenyl)amino)ethyl)-2-morpholino-4-oxo-4H-chromen-6-yl)methanesulfonamide]",80 to 90,80 to 90,0.14,–,–
"CC(Nc1cc(F)cc(F)c1)c1cc(O)cc2c(=O)cc(N3CCOCC3)oc12 (stereo not shown) [Compound 15, 8-(1-((3,5-difluorophenyl)amino)ethyl)-6-hydroxy-2-morpholino-4H-chromen-4-one]",> 90,> 90,0.059,–,–
"CC(Nc1cc(F)cc(F)c1)c1cc(N)cc2c(=O)cc(N3CCOCC3)oc12 (stereo not shown) [Compound 19, 6-amino-8-(1-((3,5-difluorophenyl)amino)ethyl)-2-morpholino-4H-chromen-4-one]",> 90,> 90,0.067,–,–
"COC(=O)Cc1cc(C(C)Nc2cc(F)cc(F)c2)c2oc(N3CCOCC3)cc(=O)c2c1 (stereo not shown) [Compound 25, methyl 2-(8-(1-((3,5-difluorophenyl)amino)ethyl)-2-morpholino-4-oxo-4H-chromen-6-yl)acetate]",> 90,> 90,0.21,–,–
"CC(Nc1cc(F)cc(F)c1)c1cc(C(=O)N2CCC(N(C)C)C2)cc2c(=O)cc(N3CCOCC3)oc12 (stereo not shown) [Compound 27, 8-(1-((3,5-difluorophenyl)amino)ethyl)-6-(3-(dimethylamino)pyrrolidine-1-carbonyl)-2-morpholino-4H-chromen-4-one]",> 90,> 90,0.28,–,–
"CC(Nc1cc(F)cc(F)c1)c1cc(C(=O)N2CC[C@@H](N(C)C)C2)cc2c(=O)cc(N3CCOCC3)oc12 (stereo partly drawn) [Compound 29, 8-(1-((3,5-difluorophenyl)amino)ethyl)-6-((R)-3-(dimethylamino)pyrrolidine-1-carbonyl)-2-morpholino-4H-chromen-4-one]",> 90,> 90,0.17,–,–
"CC(C)(O)CNC(=O)c1cc(CN2CCc3c(F)cc(F)cc32)c2oc(N3CCOCC3)cc(=O)c2c1 [Compound 84, 8-((4,6-difluoroindolin-1-yl)methyl)-N-(2-hydroxy-2-methylpropyl)-2-morpholino-4-oxo-4H-chromene-6-carboxamide]",80 to 90,80 to 90,–,–,–
"CC(C)CNC(=O)c1cc(CN2CCc3c(F)cc(F)cc32)c2oc(N3CCOCC3)cc(=O)c2c1 [Compound 85, 8-((4,6-difluoroindolin-1-yl)methyl)-N-isobutyl-2-morpholino-4-oxo-4H-chromene-6-carboxamide]",60 to 80,60 to 80,–,–,–
"CNC(=O)c1cc(CN2CCc3c(F)cc(F)cc32)c2oc(N3CCOCC3)cc(=O)c2c1 [Compound 86, 8-((4,6-difluoroindolin-1-yl)methyl)-N-methyl-2-morpholino-4-oxo-4H-chromene-6-carboxamide]",> 90,> 90,–,–,–
"CC1(C)CN(C(=O)c2cc(CN3CCc4c(F)cc(F)cc43)c3oc(N4CCOCC4)cc(=O)c3c2)C1 [Compound 87, 8-((4,6-difluoroindolin-1-yl)methyl)-6-(3,3-dimethylazetidine-1-carbonyl)-2-morpholino-4H-chromen-4-one]",60 to 80,60 to 80,–,–,–
"CC1(C#N)CN(C(=O)c2cc(CN3CCc4c(F)cc(F)cc43)c3oc(N4CCOCC4)cc(=O)c3c2)C1 [Compound 88, 1-(8-((4,6-difluoroindolin-1-yl)methyl)-2-morpholino-4-oxo-4H-chromene-6-carbonyl)-3-methylazetidine-3-carbonitrile]",60 to 80,60 to 80,–,–,–
"O=C(c1cc(CN2CCc3c(F)cc(F)cc32)c2oc(N3CCOCC3)cc(=O)c2c1)N1CC(O)C1 [Compound 89, 8-((4,6-difluoroindolin-1-yl)methyl)-6-(3-hydroxyazetidine-1-carbonyl)-2-morpholino-4H-chromen-4-one]",–,20 to 60,–,–,–
"CN(C)C(=O)c1cc(CN2CCc3c(F)cc(F)cc32)c2oc(N3CCO[C@H](CO)C3)cc(=O)c2c1 [Compound 92, (S)-8-((4,6-difluoroindolin-1-yl)methyl)-2-(2-(hydroxymethyl)morpholino)-N,N-dimethyl-4-oxo-4H-chromene-6-carboxamide]",–,–,–,60 to 80,60 to 80
"CN(C)C(=O)c1cc(CN2CCc3c(F)cc(F)cc32)c2oc(N3CCO[C@H](CF)C3)cc(=O)c2c1 [Compound 93, (S)-8-((4,6-difluoroindolin-1-yl)methyl)-2-(2-(fluoromethyl)morpholino)-N,N-dimethyl-4-oxo-4H-chromene-6-carboxamide]",80 to 90,80 to 90,–,–,–
"CC(Nc1ccc(F)c(F)c1)c1cc(C(=O)N2CC[C@@H](N(C)C)C2)cn2c(=O)cc(N3CCOCC3)nc12 (stereo partly drawn) [Compound 94, 9-(1-((3,4-difluorophenyl)amino)ethyl)-7-((R)-3-(dimethylamino)pyrrolidine-1-carbonyl)-2-morpholino-4H-pyrido[1,2-a]pyrimidin-4-one]",–,–,–,60 to 80,60 to 80
"CC(Nc1cccc(F)c1F)c1cc(C(=O)N2CC[C@@H](N(C)C)C2)cn2c(=O)cc(N3CCOCC3)nc12 (stereo partly drawn) [Compound 95, 9-(1-((2,3-difluorophenyl)amino)ethyl)-7-((R)-3-(dimethylamino)pyrrolidine-1-carbonyl)-2-morpholino-4H-pyrido[1,2-a]pyrimidin-4-one]",–,–,–,60 to 80,60 to 80
"CC1Cc2c(F)cc(F)cc2N1C(C)c1cc(C(=O)N(C)C)cn2c(=O)cc(N3CCOCC3)nc12 (stereo not shown) [Compound 96, 9-(1-(4,6-difluoro-2-methylindolin-1-yl)ethyl)-N,N-dimethyl-2-morpholino-4-oxo-4H-pyrido[1,2-a]pyrimidine-7-carboxamide]",> 90,> 90,–,–,–
"CC(c1cc(C(=O)N2CC[C@@H](N(C)C)C2)cn2c(=O)cc(N3CCOCC3)nc12)N1CCc2cccc(Cl)c21 (stereo partly drawn) [Compound 97, 9-(1-(7-chloroindolin-1-yl)ethyl)-7-((R)-3-(dimethylamino)pyrrolidine-1-carbonyl)-2-morpholino-4H-pyrido[1,2-a]pyrimidin-4-one]",20 to 60,20 to 60,–,–,–
"CN(C)C(=O)c1cc(CN2CCc3c(F)cc(F)cc32)c2nc(N3CCOCC3)cc(=O)n2c1 [Compound 98, 9-((4,6-difluoroindolin-1-yl)methyl)-N,N-dimethyl-2-morpholino-4-oxo-4H-pyrido[1,2-a]pyrimidine-7-carboxamide]",80 to 90,80 to 90,–,–,–
"CN(C)C(=O)c1cc(CN2CCc3c(F)ccc(F)c32)c2nc(N3CCOCC3)cc(=O)n2c1 [Compound 99, 9-((4,7-difluoroindolin-1-yl)methyl)-N,N-dimethyl-2-morpholino-4-oxo-4H-pyrido[1,2-a]pyrimidine-7-carboxamide]",80 to 90,80 to 90,–,–,–
"CN(C)C(=O)c1cc(CN2CCc3c(Cl)ccc(F)c32)c2nc(N3CCOCC3)cc(=O)n2c1 [Compound 100, 9-((4-chloro-7-fluoroindolin-1-yl)methyl)-N,N-dimethyl-2-morpholino-4-oxo-4H-pyrido[1,2-a]pyrimidine-7-carboxamide]",80 to 90,80 to 90,–,–,–
"C[C@@H]1CN(c2cc(=O)n3cc(C(=O)N(C)C)cc(CN4CCc5c(F)cccc54)c3n2)CCO1 [Compound 101, (R)-9-((4-fluoroindolin-1-yl)methyl)-N,N-dimethyl-2-(2-methylmorpholino)-4-oxo-4H-pyrido[1,2-a]pyrimidine-7-carboxamide]",> 90,> 90,–,–,–
